Test results published in ChEMBL document CHEMBL3751784, “Synthesis of novel 1-substituted triazole linked 1,2-benzothiazine 1,1-dioxido propenone derivatives as potent anti-inflammatory agents and inhibitors of monocyte-to-macrophage differentiation” (2015).
Activity calls are given as the source filed them. No cut-off for these calls is given here.

How the values were obtained:
THP-1 [1] = experiment: (§1) Antiinflammatory activity in human THP1 cells assessed as inhibition of PMA-induced MCP-1 secretion at 10 uM preincubated for 2 hrs followed by PMA addition measured after 48 hrs by ELISA; type: functional
THP-1 [2] = experiment: (§2) Antiinflammatory activity in human THP1 cells assessed as inhibition of PMA-induced IL-1beta secretion at 10 uM preincubated for 2 hrs followed by PMA addition measured after 48 hrs by ELISA; type: functional
[3] = Cytotoxicity against human THP1 cells assessed as cell viability at 20 uM after 48 hrs by tryphan blue dye exclusion assay relative to control; type: functional; details: THP-1, 48 h, read-out: Activity
[4] = Antiinflammatory activity in human THP1 cells assessed as inhibition of PMA-induced TNFalpha secretion at 10 uM preincubated for 2 hrs followed by PMA addition measured after 48 hrs by ELISA; type: functional; details: THP-1
THP-1 [5] = experiment: Antiinflammatory activity in human THP1 cells assessed as inhibition of PMA-induced IL-1beta secretion preincubated for 2 hrs followed by PMA addition measured after 48 hrs by ELISA; type: functional, cell-based
[6] = as §1; type: functional; details: THP-1
THP-1 [7] = experiment: Inhibition of PMA-induced monocyte to macrophage differentiation in human THP1 cells assessed as reduction in CD-36 transcript level at 15 uM preincubated for 2 hrs followed by PMA addition measured after 24 hrs by RT-PCR analysis; type: functional, cell-based
THP-1 [8] = experiment: Inhibition of PMA-induced monocyte to macrophage differentiation in human THP1 cells assessed as reduction in MMP2 enzyme activity at 15 uM preincubated for 2 hrs followed by PMA addition measured after 48 hrs by gelatin zymographic analysis; type: functional, cell-based
THP-1 [9] = experiment: Inhibition of PMA-induced monocyte to macrophage differentiation in human THP1 cells assessed as reduction in cell size at 15 uM preincubated for 2 hrs followed by PMA addition measured after 48 hrs by mitotracker dye-based confocal microscopic analysis; type: functional
THP-1 [10] = experiment: Antiinflammatory activity in human THP1 cells assessed as inhibition of PMA-induced MCP-1 secretion preincubated for 2 hrs followed by PMA addition measured after 48 hrs by ELISA; type: functional, cell-based
THP-1 [11] = experiment: Inhibition of PMA-induced MMP9 transcript level in human THP1 cells at 15 uM preincubated for 2 hrs followed by PMA addition measured after 24 hrs by RT-PCR analysis; type: functional, cell-based
THP-1 [12] = experiment: Inhibition of PMA-induced monocyte to macrophage differentiation in human THP1 cells assessed as reduction in LOX-1 transcript level at 15 uM preincubated for 2 hrs followed by PMA addition measured after 24 hrs by RT-PCR analysis; type: functional, cell-based
THP-1 [13] = experiment: Inhibition of PMA-induced monocyte/macrophage invasion in human THP1 cells at 15 uM preincubated for 2 hrs followed by PMA addition measured after 48 hrs by collagen-coated Boyden chamber invasion assay; type: functional, cell-based
THP-1 [14] = experiment: Inhibition of PMA-induced monocyte to macrophage differentiation in human THP1 cells assessed as reduction in lysosomal activity at 15 uM preincubated for 2 hrs followed by PMA addition measured after 48 hrs by lysotracker dye-based fluorescence microscopic analysis; type: functional, cell-based
THP-1 [15] = experiment: Inhibition of PMA-induced monocyte to macrophage differentiation in human THP1 cells assessed as reduction in cell adherence at 15 uM preincubated for 2 hrs followed by PMA addition measured after 48 hrs by phase contrast microscopic analysis; type: functional, cell-based
THP-1 [16] = experiment: Inhibition of PMA-induced monocyte to macrophage differentiation in human THP1 cells assessed as reduction in MMP9 enzyme activity at 15 uM preincubated for 2 hrs followed by PMA addition measured after 48 hrs by gelatin zymographic analysis; type: functional, cell-based
THP-1 [17] = experiment: Antiinflammatory activity in human THP1 cells assessed as inhibition of PMA-induced TNFalpha secretion preincubated for 2 hrs followed by PMA addition measured after 48 hrs by ELISA; type: functional, cell-based
[18] = as §2; type: functional; details: THP-1
THP-1 [19] = experiment: Inhibition of PMA-induced MMP1 transcript level in human THP1 cells at 15 uM preincubated for 2 hrs followed by PMA addition measured after 24 hrs by RT-PCR analysis; type: functional, cell-based
THP-1 [20] = experiment: Antiinflammatory activity in human THP1 cells assessed as inhibition of PMA-induced COX2 mRNA level preincubated for 2 hrs followed by PMA addition measured after 48 hrs by RT-PCR analysis; type: functional, cell-based

| SMILES | inhibition (THP-1 [1]) | inhibition (THP-1 [2]) | viability at 20 µM [3] | inhibition at 10 µM [4] | inhibition (THP-1 [5]) | inhibition at 10 µM [6] | inhibition (THP-1 [7]) | inhibition (THP-1 [8]) | inhibition (THP-1 [9]) | inhibition (THP-1 [10]) | inhibition (THP-1 [11]) | inhibition (THP-1 [12]) | inhibition (THP-1 [13]) | inhibition (THP-1 [14]) | inhibition (THP-1 [15]) | inhibition (THP-1 [16]) | inhibition (THP-1 [17]) | inhibition at 10 µM [18] | inhibition (THP-1 [19]) | inhibition (THP-1 [20]) |
| --- | --- | --- | --- | --- | --- | --- | --- | --- | --- | --- | --- | --- | --- | --- | --- | --- | --- | --- | --- | --- |
| CN1C(C(=O)/C=C/c2cn(-c3cccc(F)c3)nn2)=C(O)c2ccccc2S1(=O)=O | inactive | inactive | 93% | 48.3% |  |  |  |  |  |  |  |  |  |  |  |  |  |  |  |  |
| CN1C(C(=O)/C=C/c2cn(CC(=O)Nc3cccc(Cl)c3)nn2)=C(O)c2ccccc2S1(=O)=O |  |  | 98.2% | 91.1% | Dose-dependent effect | 84% | Active | inactive | Active | Dose-dependent effect | Active | Active | Active | Active | Active | Active | Dose-dependent effect | 80.4% | Active | Active |
| CN1C(C(=O)/C=C/c2cn(CC(=O)Nc3cccc(C(F)(F)F)c3)nn2)=C(O)c2ccccc2S1(=O)=O |  |  | 96.2% | 87.6% | Dose-dependent effect | 85.1% | Active | inactive | Active | Dose-dependent effect | Active | Active | Active | Active | Active | Active | Dose-dependent effect | 83.6% | Active | Active |
| Cc1ccc(NC(=O)Cn2cc(/C=C/C(=O)C3=C(O)c4ccccc4S(=O)(=O)N3C)nn2)cc1 |  |  | 97% | 84.7% | Dose-dependent effect | 87.2% | Active | inactive | Active | Dose-dependent effect | Active | Active | Active | Active | Active | Active | Dose-dependent effect | 74.9% | Active | Active |
